Test results taken from patent publication US20210046096A1, “Pharmaceutical Composition of Brigatinib” (Sandoz AG, priority 2018, published 2021).
Read-outs that look alike come from different tables or passages of the source. Values belong to the compound of their own block, whether it stands above or below them.

What was measured:
[1] = Stability in the amorphous state upon storage (PXRD), general statements; format: physicochemical; details: conditions not given, judged by PXRD
Text: The brigatinib in the context of the solid dispersion of the present invention is stable in the amorphous state upon storage, as judged by the absence of characteristic PXRD peaks after storage. […] Also in the context of solid dispersions with carriers such as polyvinylpyrrolidon PVP-40000 or Syloid® AL-1FP, amorphous brigatinib converts to crystalline brigatinib upon storage.

[2] = Moisture stability at accelerated stress conditions, analysed by PXRD; format: physicochemical; details: open storage, physical form by PXRD
Protocol: Powder X-ray diffraction was performed with a PANalytical X'Pert PRO diffractometer equipped with a theta/theta coupled goniometer in transmission geometry, Cu-Kalpha1,2 radiation (wavelength 0.15419 nm) with a focusing mirror and a solid state PIXcel detector. Diffractograms were recorded at a tube voltage of 45 kV and a tube current of 40 mA, applying a stepsize of 0.013° 2-Theta with 40 s per step (255 channels) in the angular range of 2° to 40° 2-Theta at ambient conditions.
Moisture stability at accelerated stress conditions was performed in a Memmert constant climate chamber HPP110. 30-50 mg of a given solid composition prepared according to the Examples and Comparative Example herein were exposed to an atmosphere having a relative humidity of 75±0.5% and a temperature of 40±0.5° C. for a period of time as indicated in Tables 1-3 below and analyzed via PXRD as described above.
Brigatinib (1.50 g, e.g. prepared according to the procedures disclosed in WO 2016/065028 A1, part V) was dissolved in 75 mL of acetonitrile/water solution (volume ratio 50:50). The solution was filtered. The homogeneous solution was frozen in a bath of liquid nitrogen and lyophilized at a pressure of from 0.02 to 1.0 mbar, yielding amorphous brigatinib, as confirmed by the PXRD depicted in FIG. 1. The obtained amorphous brigatinib was stored open under accelerated stability conditions (temperature: 40° C., relative humidity: 75%).
Brigatinib (about 100 mg, e.g. prepared according to the procedures disclosed in WO 2016/065028 A1, part V) and the organic polymer (about 100 mg) according to Table 2 were dissolved in 7 to 8 mL of acetonitrile/water solution (volume ratio 50:50). The homogeneous solution was frozen in a bath of liquid nitrogen and lyophilized at a pressure of from 0.02 to 1.0 mbar, yielding an amorphous solid dispersion of brigatinib. The so obtained solid dispersion was open stored under accelerated stability conditions (temperature: 40° C., relative humidity: 75%) for three weeks. […]

[3] = cited from earlier work
[4] = Thermogravimetric mass spectroscopy (TGMS) thermal stability; format: physicochemical; details: heated 25° C. to 250° C. at 10° C./min
Protocol: Thermogravimetric analysis (TGA) was performed on a Mettler Toledo TGA/DSC 1 instrument. Samples were heated in 100 μl aluminium pans closed with aluminium lids. Lids were automatically pierced at the beginning of the measurement. Samples were initially kept at 25° C. for 2.5 minutes and then heated from room temperature to 250° C. at a rate of 10° C./min. Nitrogen (purge rate 30 ml/min) was used as purge gas.
Mass spectrometry (MS) measurements, coupled with thermogravimetric analysis (TGA), were performed with a Pfeiffer GSD 320 ThermoStar Gas Analysis System. A part of the headspace was evacuated with a capillary placed near the TG sample pan, and mass fragments between 1-100 atomic mass units (amu) were analyzed simultaneously without further separation applying a secondary electron multiplier (SEM) for signal amplification.

[5] = as described in WO 2016/065028 A1

PXRD analysis after storage at 40° C. and 75% RH for 1 week [2]: Form A
PXRD analysis after storage at 40° C. and 75% RH for 1 week ([2]; listed as neat amorphous brigatinib): contained crystalline Form A
PXRD analysis after storage at 40° C. and 75% RH for 3 weeks ([2]; 3 weeks): Form A
Compound: COc1cc(N2CCC(N3CCN(C)CC3)CC2)ccc1Nc1ncc(Cl)c(Nc2ccccc2P(C)(C)=O)n1 [Brigatinib, 5-chloro-N4-[2-(dimethylphosphoryl)phenyl]-N2-[2-methoxy-4-[4-(4-methylpiperazin-1-yl)piperidin-1-yl]phenyl]pyrimidine-2,4-diamine]
Stability of the amorphous state upon storage [1]: readily converts to crystalline form A of brigatinib upon storage for as short as one week only

Compound: COc1cc(N2CCC(N3CCN(C)CC3)CC2)ccc1Nc1ncc(Cl)c(Nc2ccccc2P(C)(C)=O)n1 [Form B, 5-chloro-N4-[2-(dimethylphosphoryl)phenyl]-N2-[2-methoxy-4-[4-(4-methylpiperazin-1-yl)piperidin-1-yl]phenyl]pyrimidine-2,4-diamine]
Hygroscopicity [3, 5]: hydroscopic
Relative humidity at which the form reversibly converts to hydrated crystalline forms C or D [3, 5]: above 30%
Temperature at which the form transforms to form A ([3]; elevated temperature, WO 2016/065028 A1): above 150 °C

Temperature at which the chemistry of the sample changes (TGMS) [4]: about 100 °C
Compound: COc1cc(N2CCC(N3CCN(C)CC3)CC2)ccc1Nc1ncc(Cl)c(Nc2ccccc2P(C)(C)=O)n1 [brigatinib form A, 5-chloro-N4-[2-(dimethylphosphoryl)phenyl]-N2-[2-methoxy-4-[4-(4-methylpiperazin-1-yl)piperidin-1-yl]phenyl]pyrimidine-2,4-diamine]
Hygroscopicity ([3]; as described in WO 2016/065028 A1, listed as Form A): non-hygroscopic
